Results reported in BindingDB's records for doi:10.1002/cbic.201402579 (2015).

Biological target: Cyclin-dependent kinase 2 (Homo sapiens, UniProt P24941)
Assay: Protein Kinase Assay
Conditions: pH 7.5; 30 °C
Experimental: We incubated human recombinant CDK2/cyclin A with small molecules at the indicatedconcentrations in buffer A (Tris HCl (25 mm, pH 7.5), MgCl2 (10 mm), EGTA (1 mm), DTT (1 mm), heparin ([…])) containing histone H1 (1 mg/mL), […] and [g-33P]ATP (15 mm, 3,000 Cimmol^-1; 10 mCi/mL) in a […]. After 30 min incubation at 30 C , we stopped the reaction by using a MicroBeta FilterMate-96 Harvester and P81 phosphocellulose papers , which we washed in phosphoric acid (1 %). We added scintillation fluid, and we measured the radioactivity in a counter with microplate robotic stackers. We calculated kinase activity as picomoles of phosphate incorporated during the 30 min incubation. We evaluated percentage kinase activity as the amount compared to that measured in the absence of inhibitors.

| SMILES | Kd |
| --- | --- |
| NNc1ncnc2sc3c(c12)CCCC3 [4-hydrazino-5,6,7,8-tetrahydro[1]benzothieno[2,3-d]pyrimidine (A)] | 28.3 µM |
| NNc1ncnc2sc3c(c12)CCCCC3 [4-hydrazino-6,7,8,9-tetrahydro-5H-cyclohepta[4,5]thieno[2,3-d]pyrimidine (A1)] | 32.5 µM |
| NNc1ncnc2sc3c(c12)CCC3 [7,8-dihydro-6H-cyclopenta[4,5]thieno[1,2-c]pyrimidin-1-yldiazane] | 287 µM |

These reach a lower Kd. Values come first.

| Kd | SMILES |
| --- | --- |
| 17.8 µM | CC(=O)OCc1cc(O)c2c(c1)C(=O)c1cccc(O)c1C2=O [11-O-acetyl-aloe-emodin] |
| 9.6 µM | O=C(O)c1cc(O)c2c(c1)C(=O)c1cccc(O)c1C2=O [RHEIN] |
